# Tested on: basophilic granulocytes
# Details: fMLP 10^-7 M, 30 minutes at 37° C., typical values
# Description: Peripheral blood (heparinised) of the patient is incubated with various concentrations of the suspected allergen at 37° C. […] The detection is carried out by a three colour immunofluorescence and flow cytometric analysis. The chemotactic peptide fMLP serves as a positive control and a buffer solution (PBS) is used as the negative control.
# The sample to be examined is divided into aliquots of 100 μl in each case. In the case of high leukocyte numbers (WBC of 10-20,000 C/μl) it is possible to use a smaller sample volume e.g. 50 μl. Multiple test mixtures are not necessary.
# ALK-depot SQ (Scherax) mixture of 6 grasses+rye is used at concentrations of 10,000, 1,000, 100 and 10 U/ml. ALK-prick SQ (Scherax) bee venom and ALK-prick SQ (Scherax) wasp venom are used at concentrations of 10, 1, 0.1 and 0.01 μg/ml. Latex allergens, PPL (allergopen) and MDM (allergopen) are used in dilutions of 1:10, 1:100 and 1:1,000. Penicillin Grünenthal is used at concentrations of 100, 10, 1 and 0.1 μg/ml. PBS serves as a negative control and fMLP at a concentration of 10^−7 M (i.e. 1:2,000 PBS) is used as the positive control. A sample from a healthy normal test person is also assayed as a further control.
# 100 μl of each of the allergen dilutions is added to an aliquot of the sample, mixed and incubated for 30 minutes at 37° C. in a water bath. Then the mixtures are placed on ice.
# The following antibody solutions are then added.
# a) 20 μl anti gp55-FITC (prediluted)
# b) 20 μl anti IgE-PE (prediluted)
# c) 10 μl anti CD45-cychrome or 20 μl CD45-PerCP
# After antibody addition it is well mixed (vortex) and incubated for 20 minutes on ice while protected from light.
# 2 ml FACS lysing solution (erythrocyte lysis and leukocyte fixation) is then added, it is mixed (vortex) and incubated for 10 minutes at room temperature while protected from light. Subsequently it is centrifuged for 5 min at 1300 rpm or 300 g and decanted.
# The cells are washed by adding 3 ml wash solution (PBS), centrifuging (5 min at 1300 rpm or 300 g) and decanting.
# The sample is measured by flow cytometry for example on an FACS scan instrument. The stability of the measured sample is presumably ≧2 hours on flaked ice in the dark.
# In the SSC/IgE dot plot, a region is set around the cells with low and high side scattered light and strong IgE expression. […] The markers are set such that the evaluation region covers the region of the gp55 positive basophils (the PBS test mixture serves as a negative control). The mean value FL1 is observed in all (also gp55-negative) cell populations. If possible, at least 1000 cells of the subclass of interest (in this case basophils) are recorded. […] It is therefore possible to view the percentage which is adequate for evaluating the test result.
substance,measurement,setting,value
fMLP,% basos,heparinised whole blood,2.35%
same,mean gp55,mean FL1 of all basophils,369
same,mean CD45,mean fluorescence (CD45 expression density) of basophils,349
same,mean IgE,mean fluorescence (IgE density) of basophils,981
same,% gp55,percentage of gp55-positive basophilic granulocytes,30.6%

# — patent publication US6835551B2, “Basophil degranulation test” (Orpegen Pharma GmbH, priority 1999, dated 2004)
